Test results taken from US20240226115A1, “AXL INHIBITOR COMPOUNDS” (ARCUS BIOSCIENCES, INC., priority 2021, published 2024).

Columns and labels:
[1] = biological target: T1, Axl (Homo sapiens, UniProt P30530); experiment: HTRF KinEASE-TK biochemical potency, AXL; parameters: purchased Invitrogen; conditions: 5 nM AXL, 700 μM ATP
T1 sequence (P30530 26-894): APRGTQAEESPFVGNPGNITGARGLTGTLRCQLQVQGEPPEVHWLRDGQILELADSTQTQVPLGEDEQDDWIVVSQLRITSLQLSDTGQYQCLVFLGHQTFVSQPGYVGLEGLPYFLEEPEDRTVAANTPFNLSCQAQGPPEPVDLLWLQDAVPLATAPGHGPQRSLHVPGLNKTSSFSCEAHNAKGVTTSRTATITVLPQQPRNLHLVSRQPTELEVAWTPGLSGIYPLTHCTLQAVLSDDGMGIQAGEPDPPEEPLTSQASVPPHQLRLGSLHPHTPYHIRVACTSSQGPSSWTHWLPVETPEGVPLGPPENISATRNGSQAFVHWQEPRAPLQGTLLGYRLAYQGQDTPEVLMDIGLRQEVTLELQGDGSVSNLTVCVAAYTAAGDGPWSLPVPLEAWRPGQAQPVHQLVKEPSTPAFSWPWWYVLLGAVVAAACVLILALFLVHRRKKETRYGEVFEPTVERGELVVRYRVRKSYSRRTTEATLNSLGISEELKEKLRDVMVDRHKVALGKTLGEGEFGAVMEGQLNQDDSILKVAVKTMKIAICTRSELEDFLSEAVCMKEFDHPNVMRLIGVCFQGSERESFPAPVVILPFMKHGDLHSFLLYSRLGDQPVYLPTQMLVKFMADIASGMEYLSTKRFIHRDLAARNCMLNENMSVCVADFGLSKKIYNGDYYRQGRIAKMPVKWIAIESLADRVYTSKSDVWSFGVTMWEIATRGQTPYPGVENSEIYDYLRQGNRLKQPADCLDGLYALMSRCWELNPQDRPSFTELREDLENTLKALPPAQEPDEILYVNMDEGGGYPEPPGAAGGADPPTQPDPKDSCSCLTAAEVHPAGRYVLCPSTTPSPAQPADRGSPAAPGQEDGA
Method: (§1) Purified recombinant human AXL, TYRO3 and MER proteins were purchased from Invitrogen™. 10 nM AXL, 2 nM TYRO3 or MER were incubated with varying concentrations of compounds in 50 mM HEPES, pH 7.4, 10 mM MgCl2, 0.01% BSA, 1 mM DTT and 2% DMSO in a total volume of 20 μl in a 384-well microplate (Corning™ #3640) at RT for 1 h. The AXL, TYRO3 and MER enzymatic reaction was initiated by transferring 10 μl of enzyme and compound mixture into 10 μl of 1.6 μM TK Substrate-biotin (HTRF® KinEASE-TK kit, Cisbio) and 1400 μM ATP pre-incubated in 50 mM HEPES, pH 7.4, 10 mM MgCl2, 0.01% BSA, 1 mM DTT in a 384-well microplate (Corning™ #3640) at RT, giving the final reaction conditions: 5 nM AXL, 1 nM TYRO3 or MER, 800 nM TK Substrate-biotin and 700 μM ATP in 50 mM HEPES, pH 7.4, 10 mM MgCl2, 0.01% BSA, 1 mM DTT and 1% DMSO with varying concentrations of compounds. Following 2 h incubation at RT, the AXL, TYRO3 and MER enzymatic reaction was stopped by transfer of 10 μl of reaction into 10 μl of detection mix (400 nM Streptavidin-XL665, 200-fold dilution TK Antibody-Cryptate and detection buffer, HTRF® KinEASE-TK kit, Cisbio) in a white 384-well microplate (Perkin Elmer, OptiPlate 384). After 1 h incubation at RT, the plate was put into a plate reader (Evision) to read at 665/620 nm (acceptor/donor) for HTRF. The value of the DMSO blank (MIN inhibition=100% activity) was used as a negative control. The positive control was established by adding 5 μl of enzyme and DMSO mixture into 10 μl of detection mix followed by addition of 5 μl of TK Substrate-biotin and ATP mixture (MAX inhibition=0% activity). To calculate the percent activity, Equation 1 was used. Ratio665/620 is the value at a given compound concentration: […]

[2] = biological target: T1, Axl; experiment: Axl NanoBRET intracellular kinase assay (Cell Binding); parameters: host or cells: HEK-293; conditions: HEK-293 cells transfected with Axl-NanoLuc fusion vector; displacement of K-5 NanoBRET tracer
Method: Axl NanoBRET™ intracellular kinase assay (Promega, N2540) was performed according to manufacturer's recommendation. In brief, HEK-293 cells are transiently transfected with Axl-NanoLuc fusion vector (Promega, NV1071), utilizing Fugene HD transfection reagent (Promega, E2311) a day before experiment following manufacturer's recommendation.
The day of the assay, the cells were collected and resuspended in Opti-MEM media (ThermoFisher, 31985070) at 2e5 cells/mL concentration. Testing compounds were serial diluted and dispensed into a white 384 well polystyrene plate at 200 nL in 100% DMSO. 40 μL of resuspended cells is then added per well for a final condition of 8K cells/well with 0.5% DMSO. After one-hour compound pre-incubation at 37° C. and 5% CO2, cells were further incubated with 0.35 μM K-5 NanoBRET tracer for two-hours at 37° C. and 5% CO2. […] of 3× substrate plus Inhibitor solution was prepared according to kits manual and added to the cells followed by a 30 second pulse centrifugation spin. The plate was then immediately read utilizing an Envision (Perkin Elmer) plate reader. The BRET signal is measured by taking the ratio of the emissions reading at 610 nm and 450 nm. Compound binding is based on the decrease BRET signal caused by the displacement of the K-5 tracer. […] IC50 value of compounds was determined by 4-parameter non-linear regression fitting of percent activity in GraphPad Prism software.

[3] = biological target: T2, recombinant human TYRO3 (Homo sapiens, UniProt Q06418); experiment: HTRF KinEASE-TK biochemical potency, TYRO3; conditions: 1 nM TYRO3, 700 μM ATP
T2 construct: purchased Invitrogen
T2 sequence (Q06418 41-890): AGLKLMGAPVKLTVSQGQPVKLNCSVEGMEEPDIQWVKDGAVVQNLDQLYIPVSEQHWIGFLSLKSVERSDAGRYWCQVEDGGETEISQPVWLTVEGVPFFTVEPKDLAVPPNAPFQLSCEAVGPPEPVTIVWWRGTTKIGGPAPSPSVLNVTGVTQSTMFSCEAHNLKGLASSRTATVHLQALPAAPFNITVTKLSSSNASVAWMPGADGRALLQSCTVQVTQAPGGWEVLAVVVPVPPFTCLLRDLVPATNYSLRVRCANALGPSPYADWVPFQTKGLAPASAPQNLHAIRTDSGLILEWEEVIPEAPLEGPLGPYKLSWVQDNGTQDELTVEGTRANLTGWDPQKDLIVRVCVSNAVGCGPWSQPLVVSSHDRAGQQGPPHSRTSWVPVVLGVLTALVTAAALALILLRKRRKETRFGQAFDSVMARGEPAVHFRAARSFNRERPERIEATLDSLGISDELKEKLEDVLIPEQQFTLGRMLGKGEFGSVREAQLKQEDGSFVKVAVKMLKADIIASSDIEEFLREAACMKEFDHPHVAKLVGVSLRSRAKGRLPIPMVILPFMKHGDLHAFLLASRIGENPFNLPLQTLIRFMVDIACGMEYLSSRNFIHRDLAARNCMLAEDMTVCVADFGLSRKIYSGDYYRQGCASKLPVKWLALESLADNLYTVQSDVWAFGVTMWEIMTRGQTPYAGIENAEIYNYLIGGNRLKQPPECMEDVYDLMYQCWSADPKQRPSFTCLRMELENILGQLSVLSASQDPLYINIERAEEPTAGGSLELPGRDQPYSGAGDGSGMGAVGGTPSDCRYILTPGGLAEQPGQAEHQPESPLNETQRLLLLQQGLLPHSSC
Method: as §1

## O=C1NCCOc2cc(-c3n[nH]c4ncc(-c5cc(Cl)c6c(c5)CCN(C5CCCC5)C6)cc34)ccc21 [Example 8, 8-[5-(8-Chloro-2-cyclopentyl-1,2,3,4-tetrahydroisoquinolin-6-yl)-1H-pyrazolo[3,4-b]pyridin-3-yl]-2,3,4,5-tetrahydro-1,4-benzoxazepin-5-one]
[1]
  IC50: 100 to 1000 nM
[2]
  IC50: > 1000 nM

## FC1(F)Oc2ccc(-c3n[nH]c4ncc(-c5ccc6c(c5)CCN(C5CCCC5)CC6)cc34)cc2O1 [Example 14, 3-Cyclopentyl-7-(3-(2,2-difluorobenzo[d][1,3]dioxol-5-yl)-1H-pyrazolo[3,4-b]pyridin-5-yl)-2,3,4,5-tetrahydro-1H-benzo[d]azepine]
[1]
  IC50: > 1000 nM
[2]
  IC50: > 1000 nM

## CS(=O)(=O)N1CCc2ccc(-c3cnc4[nH]nc(-c5ccc6c(c5)OCCNC6=O)c4c3)cc2CC1 [Example 18, 8-[5-(3-Methanesulfonyl-2,3,4,5-tetrahydro-1H-3-benzazepin-7-yl)-1H-pyrazolo[3,4-b]pyridin-3-yl]-2,3,4,5-tetrahydro-1,4-benzoxazepin-5-one]
[3]
  IC50: < 100 nM
[1]
  IC50: < 100 nM
[2]
  IC50: > 1000 nM
